# According to ChEMBL document CHEMBL1949508, “The selective cytotoxic activity in breast cancer cells by an anthranilic alcohol-derived acyclic 5-fluorouracil O,N-acetal is mediated by endoplasmic reticulum stress-induced apoptosis” (Eur J Med Chem, 2012):
# Activity calls are given as the source filed them. The rule behind the calls is not given here.
# Assays:
# MCF7 [1] = assay: Downregulation of TP5313 gene in human MCF7 cells at 1.09 uM after 48 hrs by microarray hybridization relative to control; type: functional
# MCF-10A [2] = assay: Upregulation of NOXA gene in human MCF10A cells at 37.67 uM after 48 hrs by microarray hybridization relative to control; type: functional, cell-based
# MCF7 [3] = assay: Upregulation of CARD14 gene in human MCF7 cells at 1.09 uM after 48 hrs by microarray hybridization relative to control; type: functional
# MCF-10A [4] = assay: Downregulation of TP5313 gene in human MCF10A cells at 37.67 uM after 48 hrs by microarray hybridization relative to control; type: functional, cell-based
# MCF-10A [5] = assay: Induction of necrosis in human MCF10A cells assessed as necrotic cells at 37.67 uM after 48 hrs by annexinV-FITC/PI-based flow cytometry (reference value: 0.6 +/- 0.13%); type: cell-based
# [6] = Antiproliferative activity against human MCF10A cells assessed as viable cells at 37.67 uM after […] by SRB assay (reference value: 98.46 +/- 3.2%); type: cell-based, MCF-10A; details: read-out: Activity
# MCF7 [7] = assay: Downregulation of CCL2 gene in human MCF7 cells at 1.09 uM after 48 hrs by microarray hybridization relative to control; type: functional
# MCF7 [8] = assay: Downregulation of Bcl2 gene expression in human MCF7 cells at 1.09 uM after 48 hrs by quantitative RT-PCR analysis; type: functional, cell-based
# MCF7 [9] = assay: Modulation of p53 gene expression in human MCF7 cells at 1.09 uM after 48 hrs by quantitative RT-PCR analysis; type: functional, cell-based
# MCF7 [10] = assay: Upregulation of BNIP3 gene in human MCF7 cells at 1.09 uM after 48 hrs by microarray hybridization relative to control; type: functional
# MCF-10A [11] = assay: Downregulation of […] gene in human MCF10A cells at 37.67 uM after 48 hrs by microarray hybridization relative to control; type: functional, cell-based
# MCF7 [12] = assay: Downregulation of E2F1 gene in human MCF7 cells at 1.09 uM after 48 hrs by microarray hybridization relative to control; type: functional
# MCF-10A [13] = assay: Downregulation of FAIM gene in human MCF10A cells at 37.67 uM after 48 hrs by microarray hybridization relative to control; type: functional, cell-based
# MCF-10A [14] = assay: Induction of apoptosis in human MCF10A cells assessed as late apoptotic cells at 37.67 uM after 48 hrs by annexinV-FITC/PI-based flow cytometry (reference value: 0.21 +/- 0.1%); type: cell-based
# MCF-10A [15] = assay: Upregulation of BBC3 gene in human MCF10A cells at 37.67 uM after 48 hrs by quantitative RT-PCR analysis; type: functional, cell-based
# MCF-10A [16] = assay: Upregulation of BBC3 protein expression in human MCF10A cells at 37.67 uM after 48 hrs by Western blot analysis relative to control; type: functional
# MCF-10A [17] = assay: Upregulation of BNIP3L gene in human MCF10A cells at 37.67 uM after 48 hrs by microarray hybridization relative to control; type: functional, cell-based
# MCF7 [18] = assay: Upregulation of BBC3 gene in human MCF7 cells at 1.09 uM after 48 hrs by microarray hybridization relative to control; type: functional
# MCF7 [19] = assay: Downregulation of CARD9 gene in human MCF7 cells at 1.09 uM after 48 hrs by microarray hybridization relative to control; type: functional
# MCF7 [20] = assay: Modulation of Apaf-1 gene expression in human MCF7 cells at 1.09 uM after 48 hrs by quantitative RT-PCR analysis; type: functional, cell-based
# MCF-10A [21] = assay: Downregulation of UNC5C gene in human MCF10A cells at 37.67 uM after 48 hrs by microarray hybridization relative to control; type: functional, cell-based
# MCF7 [22] = assay: Upregulation of BNIP3L gene in human MCF7 cells at 1.09 uM after 48 hrs by microarray hybridization relative to control; type: functional
# MCF7 [23] = assay: Induction of apoptosis in human MCF7 cells assessed as early apoptotic cells at 1.09 uM after 48 hrs by annexinV-FITC/PI-based flow cytometry (reference value: 3.27 +/- 0.67%); type: functional
# [24] = Therapeutic index, ratio of IC50 for human MCF10A cells to IC50 for human MCF7 cells; type: cell-based; details: MCF10A cells and MCF7 cells, read-out: Ratio IC50
# MCF7 [25] = assay: Downregulation of […] gene in human MCF7 cells at 1.09 uM after 48 hrs by microarray hybridization relative to control; type: functional
# MCF7 [26] = assay: Upregulation of GADD45B gene in human MCF7 cells at 1.09 uM after 48 hrs by microarray hybridization relative to control; type: functional
# MCF-10A [27] = assay: Upregulation of DNASE1 gene in human MCF10A cells at 37.67 uM after 48 hrs by microarray hybridization relative to control; type: functional, cell-based
# MCF7 [28] = assay: Upregulation of GADD45A gene in human MCF7 cells at 1.09 uM after 48 hrs by microarray hybridization relative to control; type: functional
# MCF-10A [29] = assay: Downregulation of BCL2 gene in human MCF10A cells at 37.67 uM after 48 hrs by microarray hybridization relative to control; type: functional, cell-based
# MCF7 [30] = assay: Downregulation of AVEN gene in human MCF7 cells at 1.09 uM after 48 hrs by microarray hybridization relative to control; type: functional
# MCF7 [31] = assay: Downregulation of UNC5C gene in human MCF7 cells at 1.09 uM after 48 hrs by microarray hybridization relative to control; type: functional
smiles,measurement,setting,value
COC(CN(c1ccccc1CO)S(=O)(=O)c1ccccc1N)n1cc(F)c(=O)[nH]c1=O (racemic),fold change (FC),MCF7 [1],-2.68
same,Activity,MCF-10A [2],inactive
same,fold change (FC),MCF7 [3],2.34
same,Activity,MCF-10A [4],inactive
same,Activity,MCF-10A [5],49.24%
same,viability at 37.67 µM,[6],30.9%
same,fold change (FC),MCF7 [7],-3.77
same,Activity,MCF7 [8],Active
same,Activity,MCF7 [9],inactive
same,fold change (FC),MCF7 [10],2.65
same,Activity,MCF-10A [11],inactive
same,fold change (FC),MCF7 [12],-2.61
same,Activity,MCF-10A [13],inactive
same,Activity,MCF-10A [14],17.29%
same,Activity,MCF-10A [15],inactive
same,fold change (FC),MCF-10A [16],1.13
same,Activity,MCF-10A [17],inactive
same,fold change (FC),MCF7 [18],3.78
same,fold change (FC),MCF7 [19],-2.11
same,Activity,MCF7 [20],inactive
same,Activity,MCF-10A [21],inactive
same,fold change (FC),MCF7 [22],2.84
same,Activity,MCF7 [23],13.73%
same,selectivity ratio,[24],34.5
same,fold change (FC),MCF7 [25],-2.62
same,fold change (FC),MCF7 [26],2.2
same,Activity,MCF-10A [27],inactive
same,fold change (FC),MCF7 [28],2.54
same,Activity,MCF-10A [29],inactive
same,fold change (FC),MCF7 [30],-2.21
same,fold change (FC),MCF7 [31],-2.01
